Reference: patent US6660774B2, “Use of (+)-tramadol, O-demethyltramadol or (+)-O-demethyl-tramadol, O-desmethyl-N-mono-desmethyl-tramadol or (+)- O-desmethyl-N-mono-desmethyltramadol” (Gruenethal GmbH, priority 1999, dated 2003)

Columns and labels:
[1] = system: virgin, female Sprague-Dawley rats (bladder function); experiment: Cystometric testing on conscious, virgin rats; format: in vivo, rat
[2] = analgesic effects less pronounced on intravenous than on intracerebroventricular administration; cited from earlier work
[3] = 0.1 mg/kg i.v., Diff.: change relative to the initial value
[4] = 0.1 mg/kg i.v., h: after administration, at maximum action
[5] = 0.1 mg/kg i.v., v: before administration (initial value)
[6] = 0.5 mg/kg i.v., Diff.: change relative to the initial value
[7] = 0.5 mg/kg i.v., h: after administration, at maximum action
[8] = 0.5 mg/kg i.v., v: before administration (initial value)
[9] = 1.0 mg/kg i.v., Diff.: change relative to the initial value
[10] = 1.0 mg/kg i.v., h: after administration, at maximum action
[11] = 1.0 mg/kg i.v., v: before administration (initial value)
[12] = 5.0 mg/kg i.v., Diff.: change relative to the initial value
[13] = 5.0 mg/kg i.v., h: after administration, at maximum action
[14] = 5.0 mg/kg i.v., v: before administration (initial value)
[15] = 10.0 mg/kg i.v., Diff.: change relative to the initial value
[16] = 10.0 mg/kg i.v., h: after administration, at maximum action
[17] = 10.0 mg/kg i.v., v: before administration (initial value)

## (+)-O-desmethyltramadol [(+)-M1]
[1]; [3]
  Basal pressure: Diff.: +7%
  Bladder capacity: Diff.: +31%
  Inter-contraction interval: Diff.: +31%
  Micturition pressure: Diff.: −22%
  Micturition volume: Diff.: +48%
  Residual volume: Diff.: −73%
  Threshold pressure: Diff.: +32%
[1]; [4]
  Basal pressure: h: 3.87 ± 0.43 cm H2O
  Bladder capacity: h: 0.98 ± 0.06 ml
  Inter-contraction interval: 5.51 ± 0.52 min
  Micturition pressure: h: 70 ± 11 cm H2O
  Micturition volume: h: 0.95 ± 0.09 ml
  Residual volume: h: 0.03 ± 0.02 ml
  Threshold pressure: h: 8.07 ± 0.97 cm H2O
[1]; [5]
  Basal pressure: v: 3.62 ± 0.24 cm H2O
  Bladder capacity: v: 0.75 ± 0.08 ml
  Inter-contraction interval: 4.20 ± 0.55 min
  Micturition pressure: v: 90 ± 12 cm H2O
  Micturition volume: v: 0.64 ± 0.10 ml
  Residual volume: v: 0.11 ± 0.02 ml
  Threshold pressure: v: 6.12 ± 0.51 cm H2O
[1]; [6]
  Basal pressure: Diff.: +25%
  Bladder capacity: Diff.: +44%
  Inter-contraction interval: Diff.: +46%
  Micturition pressure: Diff.: −30%
  Micturition volume: Diff.: +51%
  Residual volume: Diff.: −33%
  Threshold pressure: Diff.: +106%
[1]; [7]
  Basal pressure: h: 4.90 ± 0.55 cm H2O
  Bladder capacity: h: 1.35 ± 0.11 ml
  Inter-contraction interval: 7.63 ± 0.60 min
  Micturition pressure: h: 66 ± 10 cm H2O
  Micturition volume: h: 1.28 ± 0.09 ml
  Residual volume: h: 0.06 ± 0.02 ml
  Threshold pressure: h: 15.34 ± 1.16 cm H2O
[1]; [8]
  Basal pressure: v: 3.91 ± 0.31 cm H2O
  Bladder capacity: v: 0.94 ± 0.08 ml
  Inter-contraction interval: 5.23 ± 0.45 min
  Micturition pressure: v: 94 ± 10 cm H2O
  Micturition volume: v: 0.85 ± 0.08 ml
  Residual volume: v: 0.09 ± 0.02 ml
  Threshold pressure: v: 7.44 ± 1.10 cm H2O
[1]; 0.1 and 0.5 mg/kg i.v.
  bladder capacity (in words): increased
  interval between micturition (in words): extended
[1]; 0.1 and, in particular, 0.5 mg/kg i.v.
  threshold pressure (in words): distinct rise

## COc1cccc([C@@]2(O)CCCC[C@@H]2CN(C)C)c1 (racemic) [Tramadol, (1RS,2RS)-2-dimethylaminomethyl-1-(3-methoxyphenyl)cyclohexanol]
[1]; [9]
  Basal pressure: Diff.: +26%
  Bladder capacity: Diff.: −2%
  Micturition pressure: Diff.: −10%
  Micturition volume: Diff.: +27%
  Residual volume: Diff.: −89%
  Threshold pressure: Diff.: +50%
[1]; [10]
  Basal pressure: h: 11.34 ± 1.54 cm H2O
  Bladder capacity: h: 0.82 ± 0.09 ml
  Micturition pressure: h: 85 ± 6 cm H2O
  Micturition volume: h: 0.95 ± 0.08 ml
  Residual volume: h: 0.01 ± 0.005 ml
  Threshold pressure: h: 21.03 ± 3.10 cm H2O
[1]; [11]
  Basal pressure: v: 9.02 ± 1.12 cm H2O
  Bladder capacity: v: 0.84 ± 0.11 ml
  Micturition pressure: v: 94 ± 7 cm H2O
  Micturition volume: v: 0.75 ± 0.09 ml
  Residual volume: v: 0.09 ± 0.02 ml
  Threshold pressure: v: 14.0 ± 2.04 cm H2O
[1]; 5 mg/kg
  action on threshold pressure compared with 10 mg/kg of racemic tramadol: doubled
[1]; [12]
  Basal pressure: Diff.: +1%
  Bladder capacity: Diff.: +6%
  Inter-contraction interval: Diff.: −11%
  Micturition pressure: Diff.: −27%
  Micturition volume: Diff.: +42%
  Residual volume: Diff.: −73%
  Threshold pressure: Diff.: +37%
[1]; [13]
  Basal pressure: h: 9.30 ± 2.10 cm H2O
  Bladder capacity: h: 0.92 ± 0.08 ml
  Micturition pressure: h: 75 ± 10 cm H2O
  Micturition volume: h: 1.08 ± 0.09 ml
  Residual volume: h: 0.03 ± 0.01 ml
  Threshold pressure: h: 17.05 ± 2.33 cm H2O
[1]; [14]
  Basal pressure: v: 9.21 ± 1.35 cm H2O
  Bladder capacity: v: 0.87 ± 0.07 ml
  Micturition pressure: v: 103 ± 10 cm H2O
  Micturition volume: v: 0.76 ± 0.06 ml
  Residual volume: v: 0.11 ± 0.02 ml
  Threshold pressure: v: 12.45 ± 1.411 cm H2O
[1]; 10 mg/kg i.v.
  threshold pressure (in words): distinct rise
[1]; [15]
  Basal pressure: Diff.: +40%
  Bladder capacity: Diff.: −18%
  Inter-contraction interval: Diff.: −40%
  Micturition pressure: Diff.: −11%
  Micturition volume: Diff.: +33%
  Residual volume: Diff.: −50%
  Threshold pressure: Diff.: +70%
[1]; [16]
  Basal pressure: h: 14.31 ± 1.89 cm H2O
  Bladder capacity: h: 0.78 ± 0.08 ml
  Micturition pressure: h: 66 ± 5 cm H2O
  Micturition volume: h: 1.13 ± 0.08 ml
  Residual volume: h: 0.05 ± 0.005 ml
  Threshold pressure: h: 25.50 ± 2.40 cm H2O
[1]; [17]
  Basal pressure: v: 10.21 ± 1.03 cm H2O
  Bladder capacity: v: 0.95 ± 0.06 ml
  Micturition pressure: v: 74 ± 5 cm H2O
  Micturition volume: v: 0.85 ± 0.05 ml
  Residual volume: v: 0.10 ± 0.02 ml
  Threshold pressure: v: 15.01 ± 1.32 cm H2O
[1]; most effective dose (10 mg/kg)
  ICI (in words): distinct reduction

## CNCC1CCCCC1(O)c1cccc(O)c1 (stereo not drawn) [M5, O-desmethyl-N-mono-desmethyltramadol]
[2]
  penetration of the blood-brain barrier (in words): only a limited extent
